Source: article PMC4809600, “The Influence of Chronic Wound Extracts on Inflammatory Cytokine and Histatin Stability” (PLoS ONE, 2016)
Where no end group is shown, it is not given here.

Tests used:
[1] = Stability in CWE with protease inhibitor cocktail (PIC), capillary zone electrophoresis; type: in vitro ADME, human; details: 37°C, CZE, 0 h = 100%; for Percentage intact, CWE + PIC 2h / Percentage intact, CWE + PIC 4h / Percentage intact, CWE + PIC 8h / Percentage intact, CWE + PIC 16h / Percentage intact, CWE + PIC 24h / Percentage intact, CWE + PIC 48h / Percentage intact, CWE + PIC 72h / Percentage intact, CWE + PIC 96h: 1 mg/ml in PBS mixed 1:1 with CWE (1 mg/ml protein, pool of 5 donors) in PBS containing PIC (final 1:140 v/v), ratio to imidazole
From the text: (§1) Debridement tissue was obtained from chronic ulcers of 15 patients with therapy resistant (arterio-venous) leg ulcers, according to procedures described earlier. In brief, moist, easily removable debridement material, essentially blood free, was collected from the ulcer surface and divided equally into two different solutions: (i) PBS (B. Braun, Melsungen, Germany), (ii) PBS with protease inhibitor cocktail (PIC) (1:100; v/v) (Sigma-Aldrich, Steinheim, Germany). The mixtures were gently shaken for 1 h at 4°C to elute proteins and centrifuged; the supernatants were stored at -80°C. Total protein content of the supernatant was measured using the BioRad Protein Assay (BioRad Laboratories, Hercules, California, USA) essentially as described by the supplier. Samples were diluted to 1 mg/ml protein and extracts of five different donors were pooled; three different pools of five donors were used in all experiments. The samples are referred to as chronic wound extracts (CWE).
(§2) To determine the stability of the different peptides in CWE, histatins and cytokines were dissolved in PBS at 1 mg/ml. Histatins and cytokines were incubated in a 1:1 ratio with (i) PBS, (ii) CWE in PBS, or (iii) CWE in PBS containing PIC, in a total volume of 25 μl. Imidazole (Sigma-Aldrich) was added as an internal standard, with a final concentration of 100 μg/ml. The mixtures were incubated at 37°C, and samples were taken at 0, 24, 48, 72 and 96 h. For histatins containing mixtures, additional samples were taken after 2, 4, 8 and 16 h of incubation.
(§3) The samples were analyzed with a BioFocus 2000 capillary zone electrophoresis system (Bio-Rad Laboratories, Hercules, CA, USA) equipped with an uncoated fused-silica capillary of internal diameter 50 μm and a length of 24 cm. Samples were loaded by pressure injection (5 psi/sec). Separation was performed at 10 kV (cathode at the detector side) at 20°C using 0.1 M phosphate buffer (pH 2.5) as electrolyte and monitored continuously at 200 nm. Peaks were quantified with the BioFocus Integrator software. In order to quantify the percentage of intact peptides remaining after incubation with CWE, the ratios of histatins, rhIL-6 or rhCXCL8 to internal standard was set at 100% at 0h, and the ratios at the other incubation time points were related to this.

[2] = Stability in chronic wound extracts (CWE), capillary zone electrophoresis; type: in vitro ADME, human; details: 37°C, CZE; for Percentage intact, CWE 2h / Percentage intact, CWE 4h / Percentage intact, CWE 8h / Percentage intact, CWE 16h / Percentage intact, CWE 24h / Percentage intact, CWE 48h / Percentage intact, CWE 72h / Percentage intact, CWE 96h: 1 mg/ml in PBS mixed 1:1 with CWE (1 mg/ml protein, pool of 5 donors) in PBS, UV 200 nm, ratio to imidazole
From the text: as §1, §2, §3

DSHEKRHHGYRRKFHEKHHSHREFPFYGDYGSNYLYDN [Hst1]
Percentage intact, CWE + PIC 2h ([1]; experiment 1 of 3): 91.8564% | Percentage intact, CWE + PIC 2h ([1]; experiment 2 of 3): 90.6434% | Percentage intact, CWE + PIC 2h ([1]; experiment 3 of 3): 99.1023% | Percentage intact, CWE + PIC 4h ([1]; experiment 1 of 3): 81.1086% | Percentage intact, CWE + PIC 4h ([1]; experiment 2 of 3): 81.649% | Percentage intact, CWE + PIC 4h ([1]; experiment 3 of 3): 84.0062% | Percentage intact, CWE + PIC 8h ([1]; experiment 1 of 3): 76.5843% | Percentage intact, CWE + PIC 8h ([1]; experiment 2 of 3): 75.4466% | Percentage intact, CWE + PIC 8h ([1]; experiment 3 of 3): 82.0587% | Percentage intact, CWE + PIC 16h ([1]; experiment 1 of 3): 72.2461% | Percentage intact, CWE + PIC 16h ([1]; experiment 2 of 3): 65.5164% | Percentage intact, CWE + PIC 16h ([1]; experiment 3 of 3): 70.9806% | Percentage intact, CWE + PIC 24h ([1]; 24 h, experiment 1 of 3): 78.4236% | Percentage intact, CWE + PIC 24h ([1]; 24 h, experiment 2 of 3): 69.711% | Percentage intact, CWE + PIC 24h ([1]; 24 h, experiment 3 of 3): 68.9989% | Percentage intact, CWE + PIC 48h ([1]; experiment 1 of 3): 73.7424% | Percentage intact, CWE + PIC 48h ([1]; experiment 2 of 3): 59.1893% | Percentage intact, CWE + PIC 48h ([1]; experiment 3 of 3): 54.0682% | Percentage intact, CWE + PIC 72h ([1]; experiment 1 of 3): 64.2173% | Percentage intact, CWE + PIC 72h ([1]; experiment 2 of 3): 41.8342% | Percentage intact, CWE + PIC 72h ([1]; experiment 3 of 3): 36.0529% | Percentage intact, CWE + PIC 96h ([1]; experiment 1 of 3): 48.0273% | Percentage intact, CWE + PIC 96h ([1]; experiment 2 of 3): 30% | Percentage intact, CWE + PIC 96h ([1]; experiment 3 of 3): 21.2156% | remaining at 24 h, 0.5 mg/ml ([1]; human, with protease inhibitor cocktail (PIC), CWE with protease inhibitor cocktail (final 1:140 v/v), 24 h, mean of 3 independent experiments, read-out: Remaining fraction of intact peptide after 24 h in CWE + PIC): 72% | Percentage intact, CWE 2h ([2]; 0 h = 100%, experiment 1 of 3): 83.2738% | Percentage intact, CWE 2h ([2]; 0 h = 100%, experiment 2 of 3): 87.1828% | Percentage intact, CWE 2h ([2]; 0 h = 100%, experiment 3 of 3): 86.6201% | Percentage intact, CWE 4h ([2]; 0 h = 100%, experiment 1 of 3): 58.4193% | Percentage intact, CWE 4h ([2]; 0 h = 100%, experiment 2 of 3): 76.5418% | Percentage intact, CWE 4h ([2]; 0 h = 100%, experiment 3 of 3): 73.9107% | Percentage intact, CWE 8h ([2]; 8 h, 0 h = 100%, experiment 1 of 3): 32.9227% | Percentage intact, CWE 8h ([2]; 8 h, 0 h = 100%, experiment 2 of 3): 52.8031% | Percentage intact, CWE 8h ([2]; 8 h, 0 h = 100%, experiment 3 of 3): 51.366% | Percentage intact, CWE 16h ([2]; 0 h = 100%, experiment 1 of 3): 8.0136% | Percentage intact, CWE 16h ([2]; 0 h = 100%, experiment 2 of 3): 20.767% | Percentage intact, CWE 16h ([2]; 0 h = 100%, experiment 3 of 3): 27.1396% | Percentage intact, CWE 24h ([2]; 24 h, 0 h = 100%, experiment 1 of 3): 1.592% | Percentage intact, CWE 24h ([2]; 24 h, 0 h = 100%, experiment 2 of 3): 7.881% | Percentage intact, CWE 24h ([2]; 24 h, 0 h = 100%, experiment 3 of 3): 13.5375% | Percentage intact, CWE 48h ([2]; 0 h = 100%, experiment 1 of 3): 0.0001% | Percentage intact, CWE 48h ([2]; 0 h = 100%, experiment 2 of 3): 0.0001% | Percentage intact, CWE 48h ([2]; 0 h = 100%, experiment 3 of 3): 0.0001% | Percentage intact, CWE 72h ([2]; 0 h = 100%, experiment 1 of 3): 0.0001% | Percentage intact, CWE 72h ([2]; 0 h = 100%, experiment 2 of 3): 0.0001% | Percentage intact, CWE 72h ([2]; 0 h = 100%, experiment 3 of 3): 0.0001% | Percentage intact, CWE 96h ([2]; 0 h = 100%, experiment 1 of 3): 0.0001% | Percentage intact, CWE 96h ([2]; 0 h = 100%, experiment 2 of 3): 0.0001% | Percentage intact, CWE 96h ([2]; 0 h = 100%, experiment 3 of 3): 0.0001% | remaining at 8 h, 0.5 mg/ml ([2]; human, chronic wound extracts (CWE), 1 mg/ml in PBS mixed 1:1 with CWE (1 mg/ml protein, pools of 5 donors), 8 h, 0 h = 100%, mean of 3 independent experiments, read-out: Original amount of peptide remaining intact after 8 h in CWE): 46% | remaining at 24 h, 0.5 mg/ml ([2]; human, chronic wound extracts (CWE), 1 mg/ml in PBS mixed 1:1 with CWE (1 mg/ml protein, pools of 5 donors), 24 h, 0 h = 100%, mean of 3 independent experiments, read-out: Original amount of peptide remaining intact after 24 h in CWE): 8% | metabolised at 8 h, 0.5 mg/ml ([2]; human, chronic wound extracts (CWE), incubation with chronic wound extracts, 8 h, read-out: Breakdown (degradation) in CWE in 8 h): ~50%
